Reference: US3988476A, “Pharmaceutical compositions and methods of treating allergic conditions utilizing 2-nitroindane-1,3-dione derivatives as the active agent” (Beecham Group Limited, priority 1972, dated 1976)

Tested on: PCA response
Assay: Rat Passive Cutaneous Anaphylaxis (PCA) test, ovalbumin challenge
Type: in vivo, Wistar rats
Conditions: for % Inhibition of PCA response: 34 mg/kg
Experimental: All of the 2-nitro indane-1,3-dione prepared in the preceding Examples were submitted for biological testing. The test system was the Rat Passive Cutaneous Anaphylaxis (PCA) test described below in (ii).
Male Wister rats of 250- 300 g, were injected intraperitoneally with 0.5 ml of Bordatella pertussis vaccine (containing 4× 10^10 dead organism per ml) and subcutaneously with 0.5 ml of an emulsion of 100 mg. of ovalbumin in 2 ml of saline and 3 ml of incomplete Freunds' adjuvant. Rats were bled by cardiac puncture on day 18, the blood was pooled and separated and serum stored at -20° and thawed only once before use.
0.1 ml of each of six twofold serial dilutions of the serum in 0.9% saline were injected intradermally into separate sites on the shaved dorsal surface of 250-350 g. Wistar rats. 72 hours later the animals were challenged by i.v. injection of 0.3 ml of 1% ovalbumin mixed with 0.1 ml of a 5% solution of pontamine sky blue dye both in isotonic saline buffered with pH. 7.2 Sorenson buffer (P.B.S.). The rats were killed after 20 minutes and the diameter of the blue wheals at the antibody injection sites were measured. The starting dilution of the serum was adjusted so that there was no response, after challenge, at the site of injection of the highest dilution and a maximum response at the lowest dilution.
Amounts of the compounds were administered to rats each amount to a test group of six animals at a specified time prior to intravenous challenge with ovalbumin.
For those compounds having insoluble sodium salts, the salts were isolated by reaction of the free nitro compound with 2.5N sodium hydroxide and the filtered sodium washed free of alkali with water. The dried salts were then administered as a suspension in 1% methyl cellulose.

[1] = 25 mg/kg, 0 min between dosing and challenge, solution of Na salt
[2] = 25 mg/kg, 30 min between dosing and challenge, solution of Na salt
[3] = 100 mg/kg, 0 min between dosing and challenge, solution of Na salt
[4] = 100 mg/kg, 30 min between dosing and challenge, solution of Na salt
[5] = 25 mg/kg, 0 min between dosing and challenge, suspension of Na salt in 1% methyl cellulose
[6] = 100 mg/kg, 0 min between dosing and challenge, suspension of Na salt in 1% methyl cellulose
[7] = 25 mg/kg, 60 min between dosing and challenge, suspension of Na salt in 1% methyl cellulose
[8] = 100 mg/kg, 60 min between dosing and challenge, suspension of Na salt in 1% methyl cellulose
[9] = 25 mg/kg, 60 min between dosing and challenge, solution of Na salt
[10] = 100 mg/kg, 60 min between dosing and challenge, solution of Na salt

Structure (SMILES)	% INHIBITION OF PCA RESPONSE [1] [%]	% INHIBITION OF PCA RESPONSE [2] [%]	% INHIBITION OF PCA RESPONSE [3] [%]	% INHIBITION OF PCA RESPONSE [4] [%]	% INHIBITION OF PCA RESPONSE [5] [%]	% INHIBITION OF PCA RESPONSE [6] [%]	% INHIBITION OF PCA RESPONSE [7] [%]	% INHIBITION OF PCA RESPONSE [8] [%]	other results
COc1cc(C)cc2c1C(=O)C([N+](=O)[O-])C2=O (stereo not drawn) [4-Methoxy-6-methyl-2-nitro indane-1,3-dione]	34	31	80	24					
CC(C)Oc1cccc2c1C(=O)C([N+](=O)[O-])C2=O (stereo not drawn) [4-isopropyloxy-2-nitroindane 1,3-dione, 4Isopropyloxy-2-nitro-indane-1,3-dione]					23	49			% INHIBITION OF PCA RESPONSE (25 mg/kg, 30 min between dosing and challenge, suspension of Na salt in 1% methyl cellulose): 36%; % INHIBITION OF PCA RESPONSE (100 mg/kg, 30 min between dosing and challenge, suspension of Na salt in 1% methyl cellulose): 51%
O=C1c2ccc(-c3ccccc3)cc2C(=O)C1[N+](=O)[O-] (stereo not drawn) [2-nitro-5-phenyl indane-1,3-dione, 2-Nitro-5-phenyl indane-1,3-dione]					58	82	56	36	
Cc1ccc(C)c2c1C(=O)C([N+](=O)[O-])C2=O [4,7-dimethyl-2-nitroindane-1,3-dione, 4,7-Dimethyl-2-nitro-indane-1,3-dione]					35	46	16	8	
Cc1cc(C)c2c(c1)C(=O)C([N+](=O)[O-])C2=O (stereo not drawn) [4,6-dimethyl-2-nitroindane-1,3-dione, 4,6-Dimethyl-2-nitro-indane-1,3-dione]	58	27							
O=C1c2ccc3c(c2C(=O)C1[N+](=O)[O-])CCCC3 (stereo not drawn) [4,5-cyclohexano 2-nitroindane 1,3-dione, 4,5-Cyclohexano-2-nitroindane-1,3-dione]									% Inhibition of PCA response (0 min between dosing and challenge, suspension of Na salt in 1% methyl cellulose): 7%; % Inhibition of PCA response (60 min between dosing and challenge, suspension of Na salt in 1% methyl cellulose): 32%
O=C1c2ccc3ccccc3c2C(=O)C1[N+](=O)[O-] (stereo not drawn) [2-nitrobenz(e) indane-1,3-dione, 2-Nitro benz(e)indane-1,3-dione]					16	13	50	47	
CCOc1cccc2c1C(=O)C([N+](=O)[O-])C2=O (stereo not drawn) [4-ethoxy-2-nitroindane-1,3-dione, 4-Ethoxy-2-nitro indane-1,3-dione]	13	68	76	55					
O=C1c2cccc(Br)c2C(=O)C1[N+](=O)[O-] (stereo not drawn) [4-bromo-2-nitroindane-1,3-dione, 4-Bromo-2-nitro indane-1,3dione]					8	-4	24	70	
O=C1c2ccc(Br)cc2C(=O)C1[N+](=O)[O-] (stereo not drawn) [5-bromo-2-nitroindane-1,3-dione, 5-Bromo-2-nitro indane-1,3-dione]	46		30						% INHIBITION OF PCA RESPONSE [9]: 87%; % INHIBITION OF PCA RESPONSE [10]: 64%
O=C1c2ccc3c(c2C(=O)C1[N+](=O)[O-])CCC3 (stereo not drawn) [4,5-cyclopentano 2-nitroindane 1,3-dione, 4,5-Cyclopentano-2-nitro indane-1,3-dione]					5	26	34	28	
CCCOc1cccc2c1C(=O)C([N+](=O)[O-])C2=O (stereo not drawn) [4-n-propyloxy 2-nitroindane 1,3-dione, 2-Nitro-4-n-Propyloxy indane-1,3-dione]	77	37	30	37					
O=C1c2cccc(-c3ccccc3)c2C(=O)C1[N+](=O)[O-] (stereo not drawn) [2-nitro-4-phenyl indane 1,3 indione, 2-Nitro-4-Phenyl indane-1,3-dione]	12		8						% INHIBITION OF PCA RESPONSE [9]: 22%; % INHIBITION OF PCA RESPONSE [10]: 24%
Cc1cccc2c1C(=O)C([N+](=O)[O-])C2=O (stereo not drawn) [4-methyl-2-nitroindane-1,3-dione, 4-Methyl-2-nitroindane-1,3-dione]					2	6	33	57	
CCc1cc(OC)c2c(c1)C(=O)C([N+](=O)[O-])C2=O (stereo not drawn) [6-Ethyl-4-methoxy-2-nitro indane-1,3-dione]	66	37	91	32					
COc1cccc2c1C(=O)C([N+](=O)[O-])C2=O (stereo not drawn) [4-methoxy-2-nitroindane-1,3-dione, 4-Methoxy-2-nitro indane-1,3-dione]					-2	18	25	36	
Cc1cc2c(cc1C)C(=O)C([N+](=O)[O-])C2=O [5,6-dimethyl-2-nitroindane-1,3-dione, 5,6-Dimethyl-2-nitro-indane-1,3-dione]					92	73	48	54	
Cc1ccc2c(c1)C(=O)C([N+](=O)[O-])C2=O (stereo not drawn) [5-methyl-2-nitroindane-1,3-dione, 5-Methyl-2-nitroindane-1,3-dione]	66	44	100	47					
O=C1c2cccc(F)c2C(=O)C1[N+](=O)[O-] (stereo not drawn) [4-fluoro-2-nitroindane-1,3-dione, 4-Fluoro-2-nitro indane-1,3-dione]	48	8	86	30					
CCCCOc1cccc2c1C(=O)C([N+](=O)[O-])C2=O (stereo not drawn) [4-n-butyloxy-2-nitroindane 1,3-dione, 4-n-Butyloxy-2-nitro indane-1,3-dione]	29		63						% INHIBITION OF PCA RESPONSE [9]: 43%; % INHIBITION OF PCA RESPONSE [10]: 50%
O=C1c2c(Cl)c(Cl)c(Cl)c(Cl)c2C(=O)C1[N+](=O)[O-] [2-Nitro-4,5,6,7-tetrachloro indane-1,3-dione]	-13		-3						% INHIBITION OF PCA RESPONSE [9]: 9%; % INHIBITION OF PCA RESPONSE [10]: 7%
COc1ccc(C)c2c1C(=O)C([N+](=O)[O-])C2=O (stereo not drawn) [4-Methoxy-7-methyl-2-nitro indane1,3-dione]	34	62	36	44					
O=C1c2cc3ccccc3cc2C(=O)C1[N+](=O)[O-] [2-nitro-benz[f] indane 1,3-dione, 2-Nitro benz[f] indane-1,3-dione]					100	100	37	72	
CC(C)COc1cccc2c1C(=O)C([N+](=O)[O-])C2=O (stereo not drawn) [4-isobutyloxy-2-nitroindane 1,3-dione, 4-Isobutyloxy-2-nitro indane-1,3-dione]	61	28	78	41					
CCc1cccc2c1C(=O)C([N+](=O)[O-])C2=O (stereo not drawn) [4-ethyl-2-nitroindane-1,3-dione, 4-Ethyl-2-nitro indane-1,3-dione]					-5	1	23	25	
